According to patent US20240058334A1, “METHODS FOR TREATING SMALL CELL LUNG CANCER AND OTHER NEUROENDOCRINE CANCERS” (AstraZeneca AB, priority 2021, published 2024):

Tested on: SCLC cell lines
Assay: 96 hr proliferation assay in SCLC cell lines
Type: cell-based
Settings: for response to single agent ATR inhibitor: the three cell lines with greater than additive response to the combination, SLFN11 low group

SMILES | response to single agent ATR inhibitor | lurbinectedin IC50 values (cells with low expression of SLFN11 (FIG. 1))
C[C@@H]1COCCN1c1cc(C2([S@](C)(=N)=O)CC2)nc(-c2cc[nH]c3nccc2-3)n1 [ceralasertib] | relatively resistant | 
CNCc1ccc(-c2cc(-c3nc(-c4ccc(S(=O)(=O)C(C)C)cc4)cnc3N)on2)cc1 [berzosertib] | relatively resistant | 
COc1ccc2[nH]c3c(c2c1)CCN[C@]31CS[C@@H]2c3c(OC(C)=O)c(C)c4c(c3[C@H](COC1=O)N1[C@@H]2[C@H]2c3c(cc(C)c(OC)c3O)C[C@@H]([C@@H]1O)N2C)OCO4 [lurbinectedin] |  | higher
